Ends that are not written are not given here. 5,6‑TAMRA = 5,6-carboxytetramethylrhodamine fluorescent label at the N-terminus
Legend:
Type in all cases: cell-based
[1] = test system: G93A-hSOD1-GFP-expressing NSC-34 cells; experiment: Cell survival (methylene blue assay) under rotenone or low-glucose challenge, G93A-hSOD1-GFP cells
Procedure: (§1) The functional significance of the loss of such interaction was assessed by alleviation of the rotenone (a mitochondrial inhibitor) or low-glucose challenge in NSC-34 clones expressing an inducible form of the mutant G93A SOD1-GFP as monitored by cell survival. The […] (SEQ ID NO: 1) peptide was synthesized (SBS Gentech Beijing) with 5,6-TAMRA modification (to allow detection) at the N-terminus. The TAMRA-modified peptide was dissolved in 10% acetic acid and added to cell culture medium in culture medium containing 1% ethanol. Thus, 15,000 cells (WT-hSOD1 or G93A-hSOD1) seeded in each well of a 96-well plate in DMEM, 10% serum. 24 hours later, cells were incubated with 1*10^-6M cytMDH peptide (or acetic acid/ethanol vehicle) for 4 h without serum. 1-10 micromole/L Rotenone in DMEM, 10% serum was then added for 24 hours, or medium replaced with low glucose (1 mg/ml) in DMEM with 5% serum for 72 hours. Cell survival was then assessed. It was expected that if the identified peptide interaction is resolving the gain of toxic interaction of G93A SOD1-GFP, then survival of the cells upon rotenone- or low-glucose challenge will improve.
(§2) 15,000 cells (WT-hSOD1 or G93A-hSOD1) were seeded in each well of a 96 well-plate in DMEM, 10% serum. 24 hours later, the cells were incubated with 3 mM octanoic acid with and without 1-10 micromole/L rotenone in DMEM, 10% serum for 24 hours. Or, cells were incubated with 3 mM octanoic acid and medium replaced with regular ([…]) or low (1 mg/ml) glucose in DMEM with 5% serum for 72 hours. Cell survival was then assessed. It was expected that if the gain of toxic interaction of G93A SOD1-GFP is due to inhibition of the malate-aspartate shuttle, octanoic acid will provide an alternative energy source through the alternative shunt and the survival of the cells upon rotenone or low-glucose challenge will improve.
(§3) Cell survival was assessed by the methylene blue assay. Cells were fixed with 4% formaldehyde solution for 1 h, then washed with 0.1M sodium borate buffer pH8.5, stained with 1% methylene blue for 20 min and washed with water. Cell-bound dye was eluted with 200 μl of 0.1M HCl. The optical density was assessed at 595 nm in ELISA plate reader.
(§4) The […] (SEQ ID NO: 1) peptide was synthesized (SBS Gentech Beijing) with 5,6-TAMRA modification (to allow detection) at the N-terminus, dissolved in 10% acetic acid, and diluted in cell culture medium containing 1% ethanol. Thus, 15,000 cells (WT-hSOD1 or G93A-hSOD1) seeded in each well of 96 wells plate in DMEM, 10% serum and doxycline (to induce expression of the hSOD1 proteins). 24 hours later, medium was replaced with serum free DMEM, and cells were incubated with 1 micromol/liter of the TAMRA-labeled […] peptide or vehicle (1% acetic acid/ethanol) for 4 hours. […] Cell survival was then assessed.

[2] = test system: WT-hSOD1-GFP-expressing NSC-34 cells; experiment: Cell survival (methylene blue assay) under rotenone or low-glucose challenge, WT-hSOD1-GFP cells
Procedure: as §1, §2, §3, §4

[3] = target: T1, G93A-hSOD1/cytMDH complex (Homo sapiens, UniProt P00441, G94A); experiment: FACS-based FRET test of peptides competing for the G93A-hSOD1-CFP/cytMDH-YFP interaction in co-transfected NSC-34 cells; details: myc-tagged peptide expression plasmid co-transfected at 1:1:1 ratio, excitation 405 nm, emission 530 nm
T1 construct: expressed in transfected cells; host or cells: NSC-34 cells (transient co-transfection)
Source text: The screening method was based on the fluorescence resonance energy transfer (FRET) system between cyan fluorescence protein (CFP) chimera proteins and yellow fluorescence protein (YFP) chimera proteins. The present inventors designed and used this system to identify the specific interaction of G93A SOD1 with MDH1 so as to identify a motif within MDH1 that is critical for the G93A SOD1-MDH1 interaction. The agents tested were peptides derived from MDH1.
A Myc-tagged peptide library expressing small fragments of the MDH1 was prepared. MDH1 cDNA was digested with AluI or/and DpnI and the fragments were cloned so that each peptide was placed in the correct reading frame of the original protein and in frame to the human myc tag sequence. G93A SOD1-CFP and MDH1-YFP expression plasmids were transfected into NSC-34 cells with and without the myc-tagged library.
The hypothesis is that the specific MDH1-derived peptides comprising the interacting motif will compete with MDH1 for the G93A SOD1-MDH1 interaction site. In such case, the CFP and YFP fluorescence of the G93A SOD1-CFP and MDH1-YFP will still be present, but the FRET signal will be diminished. The screening studies were performed using a cell sorter (FACS) with 405 nm excitation laser and a 530/30 nm emission filter. […] RNA was extracted from the sorted cells, converted into cDNA and subjected to PCR amplification in order to amplify the peptides DNA sequences.
The DNA sequence from the sorted cells was re-cloned. Four clones were obtained, one corresponding to amino acids 14-27 of the cytMDH protein GQIAHSLLYSIGNG (SEQ ID NO: 2) and three corresponding to amino acids 217-239 of the cytMDH protein […] (SEQ ID NO: 1). The identified clones were re-analyzed in the FACS-based system to verify their ability to compete for the G93A SOD1-MDH1 interaction at 1:1:1 ratio levels. Thus, 5*10^6 NSC-34 cells were transfected with equal amounts of G93A-hSOD1-CFP and cytMDH-YFP and the suspected myc-tagged cytMDH peptide-expressing plasmids.
Ability of the 217-239 peptide to disrupt the G93A-hSOD1-cytMDH1 complex was tested by co-transfection into NSC-34 cells of constructs encoding myc-tagged 217-239 and the FRET-enabled G93A-hSOD1/cytMDH proteins, followed by FACS analysis to measure FRET.

T1 sequence (P00441 2-154 G94A limits assumed, one chain of several): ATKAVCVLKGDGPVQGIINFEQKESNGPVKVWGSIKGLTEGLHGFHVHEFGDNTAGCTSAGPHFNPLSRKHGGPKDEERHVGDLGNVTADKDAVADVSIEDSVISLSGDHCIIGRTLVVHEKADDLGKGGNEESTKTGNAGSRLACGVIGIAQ

Compound	effects of low glucose on cell viability in the presence of octanoic acid ([1]; 3 mM octanoic acid, low (1 mg/ml) glucose DMEM, 5% serum, 72 h, G93A-hSOD1-GFP cells)	effects of rotenone on cell viability in the presence of octanoic acid ([1]; 3 mM octanoic acid, rotenone 1.25 micromol/liter for 24 h, G93A-hSOD1-GFP cells)	effects of low glucose on cell viability in the presence of octanoic acid ([2]; 3 mM octanoic acid, low (1 mg/ml) glucose DMEM, 5% serum, 72 h, WT-hSOD1-GFP cells)	effects of rotenone on cell viability in the presence of octanoic acid ([2]; 3 mM octanoic acid, rotenone 1.25 micromol/liter for 24 h, WT-hSOD1-GFP cells)	FRET signal of G93A-hSOD1-CFP/cytMDH-YFP (disruption of the complex) [3]	FRET signal of G93A-hSOD1-CFP/cytMDH-YFP (disruption of the complex) ([3]; listed as peptide 14-27)	FRET signal of G93A-hSOD1-CFP/cytMDH-YFP (disruption of the complex) ([3]; listed as SEQ ID NO: 1)	FRET signal of G93A-hSOD1-CFP/cytMDH-YFP (disruption of the complex) ([3]; listed as peptide 217-239)	effects of rotenone on cell viability in the presence of peptide ([1]; 1 micromol/liter TAMRA-labeled peptide 4 h, then 0.5 micromol/L rotenone 24 h, G93A-hSOD1-GFP cells)	effects of low glucose on cell viability in the presence of peptide ([1]; 1 micromol/liter TAMRA-labeled peptide, low glucose (1 mg/ml) DMEM, 5% serum, 72 h, G93A-hSOD1 cells)	effects of rotenone on cell viability in the presence of peptide ([2]; 1 micromol/liter TAMRA-labeled peptide 4 h, then 0.5 micromol/L rotenone 24 h, WT-hSOD1-GFP cells)	effects of low glucose on cell viability in the presence of peptide ([2]; 1 micromol/liter TAMRA-labeled peptide, low glucose (1 mg/ml) DMEM, 5% serum, 72 h, WT-hSOD1 cells)
CCCCCCCC(=O)O [octanoic acid, reference compound]	greatly diminished	greatly diminished	not	not								
GQIAHSLLYSIGNG (listed as Mus musculus) [14-27 peptide]					found not to inhibit the interaction	positive FRET						
SWLKGEFITTVQQRGAAVIKARK ({5,6‑TAMRA}-SWLKGEFITTVQQRGAAVIKARK; listed as Mus musculus) [217-239 peptide, amino acids 217-239 of the cytMDH protein]					blocked FRET		prevented the FRET	negative FRET	greatly diminished	significantly diminished	not	not

Reference: patent US8461297B2, “Cytoplasmic malate dehydrogenase (MDH1) targeted treatment for neurodegenerative diseases” (Ramot at Tel-Aviv University, Ltd., priority 2007, dated 2013)
